Experimental data: US20230097157A1, “Bicyclic Pyridin-2-one and pyrimidin-4-one Derivatives Useful As a Factor XIa Inhibitors” (Janssen Pharmaceutica NV, priority 2021, published 2023)
Where two headings read alike, the source gives them in different places.

Legend:
human plasma kallikrein = human plasma kallikrein (Homo sapiens, UniProt P03952); assay: Kallikrein inhibition assay (FLINT) utilizing a quenched AMC peptide substrate Z-Gly-Pro-Arg-AMC; format: biochemical; conditions: kinetic (KIN) reads, read-out: Kallikrein KIN Inh IC50
Procedure, shortened: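 Human plasma kallikrein (2 nM final) pre-incubated 30 min with compound (11-point 3-fold series, top 1 μM, 2% DMSO), then 50 μM Z-Gly-Pro-Arg-AMC added. Buffer 50 mM Tris pH 7.5, 100 mM NaCl, 5 mM CaCl2, BSA, CHAPS. AMC fluorescence (340/440 nm) read kinetically over 30 min at room temperature, IC50 by 4-parameter logistic fit.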

Factor XIa = Factor XIa (Homo sapiens, UniProt P03951); assay: Factor XIa inhibition assay (FLINT) utilizing a fluorophore-quencher pair peptide substrate 5Fam-[…]-K5Tamra; format: biochemical; conditions: kinetic (KIN) reads, read-out: FXIa KIN Inh IC50
Procedure, shortened: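 FXIa was preincubated with compound for 30 min at room temperature in Tris pH 7.5 buffer containing CaCl2, BSA and CHAPS, then reacted with 15 μM quenched 5Fam/Tamra peptide substrate. Fluorescence (485/520 nm) was read kinetically every 5 min for 30 min.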

Chain of Factor XIa (P03951 388-625 limits assumed): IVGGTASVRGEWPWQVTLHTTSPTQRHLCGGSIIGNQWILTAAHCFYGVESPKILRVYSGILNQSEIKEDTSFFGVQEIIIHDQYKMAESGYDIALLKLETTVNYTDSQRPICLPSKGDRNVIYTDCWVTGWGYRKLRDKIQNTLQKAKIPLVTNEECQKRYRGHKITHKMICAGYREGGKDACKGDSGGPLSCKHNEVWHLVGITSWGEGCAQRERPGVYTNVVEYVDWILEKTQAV
Chain of Factor XIa (P03951 19-387 partner limits assumed): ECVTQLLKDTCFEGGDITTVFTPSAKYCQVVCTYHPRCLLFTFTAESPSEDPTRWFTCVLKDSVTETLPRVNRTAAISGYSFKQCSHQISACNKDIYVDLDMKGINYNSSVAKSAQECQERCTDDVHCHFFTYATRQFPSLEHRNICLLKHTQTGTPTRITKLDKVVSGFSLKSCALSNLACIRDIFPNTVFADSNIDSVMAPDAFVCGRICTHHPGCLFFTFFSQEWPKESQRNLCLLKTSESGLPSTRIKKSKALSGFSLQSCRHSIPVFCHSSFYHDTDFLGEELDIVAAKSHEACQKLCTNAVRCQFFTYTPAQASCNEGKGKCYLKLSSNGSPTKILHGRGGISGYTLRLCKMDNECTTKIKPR
Chain of human plasma kallikrein (P03952 391-638 limits assumed): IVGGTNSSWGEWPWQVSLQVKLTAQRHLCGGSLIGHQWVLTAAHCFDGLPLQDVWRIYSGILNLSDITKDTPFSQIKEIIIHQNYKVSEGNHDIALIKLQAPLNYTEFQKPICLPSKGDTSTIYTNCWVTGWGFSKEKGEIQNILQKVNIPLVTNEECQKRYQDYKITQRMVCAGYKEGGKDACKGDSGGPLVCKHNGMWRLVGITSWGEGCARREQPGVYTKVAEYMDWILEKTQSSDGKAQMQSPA
Chain of human plasma kallikrein (P03952 20-390 partner limits assumed): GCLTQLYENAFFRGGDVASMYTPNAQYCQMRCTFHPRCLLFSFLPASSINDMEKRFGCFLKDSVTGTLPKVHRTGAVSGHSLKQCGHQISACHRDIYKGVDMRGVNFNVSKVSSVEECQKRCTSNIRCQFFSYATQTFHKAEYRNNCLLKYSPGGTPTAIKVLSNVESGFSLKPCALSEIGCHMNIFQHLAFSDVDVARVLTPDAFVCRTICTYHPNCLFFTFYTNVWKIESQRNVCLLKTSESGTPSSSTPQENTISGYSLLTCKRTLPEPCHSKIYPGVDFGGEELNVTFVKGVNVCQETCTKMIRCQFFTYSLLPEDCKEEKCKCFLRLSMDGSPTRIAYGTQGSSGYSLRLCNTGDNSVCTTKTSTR

Row | SMILES | IC50 (human plasma kallikrein; unit μM) [µM] | IC50 (Factor XIa; unit μM) [µM] | IC50 (Factor XIa; values in nM) [µM] | IC50 (human plasma kallikrein; values in nM) [µM]
1 | Cc1nc(N)c(F)cc1-c1cnc([C@@H]2C[C@H](C)c3nc(-c4c(-n5cnnn5)ccc(Cl)c4F)cc(=O)n32)[nH]1 (stereo in doubt) [Example 130, (6*S,8*S)-6-(5-(6-Amino-5-fluoro-2-methylpyridin-3-yl)-1H-imidazol-2-yl)-2-(3-chloro-2-fluoro-6-(1H-tetrazol-1-yl)phenyl)-8-methyl-7,8-dihydropyrrolo[1,2-a]pyrimidin-4(6H)-one] | > 10 | > 10 | – | –
2 | C[C@H]1CC(c2ncc(-c3cnnn3C)[nH]2)n2c1nc(-c1c(-n3cnnn3)ccc(Cl)c1F)cc2=O (stereo in doubt) [Example 136, (6*S,8*S)-2-(3-Chloro-2-fluoro-6-(1H-tetrazol-1-yl)phenyl)-8-methyl-6-(5-(1-methyl-1H-1,2,3-triazol-5-yl)-1H-imidazol-2-yl)-7,8-dihydropyrrolo[1,2-a]pyrimidin-4(6H)-one] | > 10 | – | 0.566 | –
3 | C[C@@H]1C[C@H](c2ncc(-c3ccc(N)nc3F)[nH]2)n2c1nc(-c1c(-n3cnnn3)ccc(Cl)c1F)cc2=O (stereo in doubt) [Example 138, (6R*,8R*)-6-(5-(6-Amino-2-fluoropyridin-3-yl)-1H-imidazol-2-yl)-2-(3-chloro-2-fluoro-6-(1H-tetrazol-1-yl)phenyl)-8-methyl-7,8-dihydropyrrolo[1,2-a]pyrimidin-4(6H)-one] | 4.3 | – | 0.258 | –
4 | C[C@@H]1C[C@H](c2ncc(-c3ccnn3C)[nH]2)n2c1nc(-c1c(-n3cnnn3)ccc(Cl)c1F)cc2=O (stereo in doubt) [Example 143, (6R*,8R*)-2-(3-Chloro-2-fluoro-6-(1H-tetrazol-1-yl)phenyl)-8-methyl-6-(5-(1-methyl-1H-pyrazol-5-yl)-1H-imidazol-2-yl)-7,8-dihydropyrrolo[1,2-a]pyrimidin-4(6H)-one] | > 10 | > 10 | – | –
5 | C[C@H]1C[C@@H](c2ncc(-c3ccnn3C)[nH]2)n2c1nc(-c1c(-n3cnnn3)ccc(Cl)c1F)cc2=O (stereo in doubt) [Example 144, (6S*,8S*)-2-(3-Chloro-2-fluoro-6-(1H-tetrazol-1-yl)phenyl)-8-methyl-6-(5-(1-methyl-1H-pyrazol-5-yl)-1H-imidazol-2-yl)-7,8-dihydropyrrolo[1,2-a]pyrimidin-4(6H)-one] | – | – | 0.0621 | 0.246
6 | C[C@H]1C[C@@H](c2ncc(-c3ccc(N)nc3F)[nH]2)n2c1nc(-c1c(-n3cnnn3)ccc(Cl)c1F)cc2=O (stereo in doubt) [Example 150, (6S*,8S*)-6-(5-(6-Amino-2-fluoropyridin-3-yl)-1H-imidazol-2-yl)-2-(3-chloro-2-fluoro-6-(1H-tetrazol-1-yl)phenyl)-8-methyl-7,8-dihydropyrrolo[1,2-a]pyrimidin-4(6H)-one] | – | – | 0.0009 | 0.0259
7 | Nc1ccc(-c2cnc(C3CCCCc4cc(-c5c(-n6cnnn6)ccc(Cl)c5F)cc(=O)n43)[nH]2)c(F)n1 (centres unmarked) [Cmpd (IV), 6-(5-(6-amino-2-fluoropyridin-3-yl)-1H-imidazol-2-yl)-2-(3-chloro-2-fluoro-6-(1H-tetrazol-1-yl)phenyl)-7,8,9,10-tetrahydropyrido[1,2-a]azepin-4(6H)-one] | – | – | 0.048 | 0.16
8 | O=c1cc(-c2c(-n3cnnn3)ccc(Cl)c2F)cc2n1[C@H](c1ncc(-c3ccnc(CO)c3F)[nH]1)CC21CC1 [Example 7, (S)-7′-(3-Chloro-2-fluoro-6-(1H-tetrazol-1-yl)phenyl)-3′-(5-(3-fluoro-2-(hydroxymethyl)pyridin-4-yl)-1H-imidazol-2-yl)-2′,3′-dihydro-5′H-spiro[cyclopropane-1,1′-indolizin]-5′-one] | – | – | 0.0069 | 0.038
9 | C[C@H]1C[C@@H](c2ncc(-c3ccc(NS(C)(=O)=O)cc3)[nH]2)n2c1cc(-c1c(-n3cnnn3)ccc(Cl)c1F)cc2=O [Example 11, N-(4-(2-((1S,3S)-7-(3-chloro-2-fluoro-6-(1H-tetrazol-1-yl)phenyl)-1-methyl-5-oxo-1,2,3,5-tetrahydroindolizin-3-yl)-1H-imidazol-5-yl)phenyl)methanesulfonamide] | – | – | 0.0022 | 0.0114
10 | CNC(=O)c1ccc(-c2cnc([C@@H]3C[C@H](C)c4cc(-c5c(-n6cnnn6)ccc(Cl)c5F)cc(=O)n43)[nH]2)cn1 [Example 12, 5-(2-((1S,3S)-7-(3-Chloro-2-fluoro-6-(1H-tetrazol-1-yl)phenyl)-1-methyl-5-oxo-1,2,3,5-tetrahydroindolizin-3-yl)-1H-imidazol-5-yl)-N-methylpicolinamide] | – | – | 0.0637 | 0.205
11 | CNC(=O)c1cc(-c2cnc([C@@H]3C[C@H](C)c4cc(-c5c(-n6cnnn6)ccc(Cl)c5F)cc(=O)n43)[nH]2)ccn1 [Example 13, 4-(2-((1S,3S)-7-(3-Chloro-2-fluoro-6-(1H-tetrazol-1-yl)phenyl)-1-methyl-5-oxo-1,2,3,5-tetrahydroindolizin-3-yl)-1H-imidazol-5-yl)-N-methylpicolinamide] | – | – | 0.0127 | 0.0369
12 | C[C@H]1C[C@@H](c2ncc(-c3c(C#N)cnn3C)[nH]2)n2c1cc(-c1c(-n3cnnn3)ccc(Cl)c1F)cc2=O [Example 14, 5-(2-((1S,3S)-7-(3-Chloro-2-fluoro-6-(1H-tetrazol-1-yl)phenyl)-1-methyl-5-oxo-1,2,3,5-tetrahydroindolizin-3-yl)-1H-imidazol-5-yl)-1-methyl-1H-pyrazole-4-carbonitrile] | 4.7 | – | 0.189 | –
13 | C[C@H]1C[C@@H](c2ncc(-c3cc(N)nn3C)[nH]2)n2c1cc(-c1c(-n3cnnn3)ccc(Cl)c1F)cc2=O [Example 15, (1S,3S)-3-(5-(3-Amino-1-methyl-1H-pyrazol-5-yl)-1H-imidazol-2-yl)-7-(3-chloro-2-fluoro-6-(1H-tetrazol-1-yl)phenyl)-1-methyl-2,3-dihydroindolizin-5(1H)-one] | 3.2 | – | 0.165 | –
14 | C[C@H]1C[C@@H](c2ncc(-c3ccc(=O)[nH]c3)[nH]2)n2c1cc(-c1c(-n3cnnn3)ccc(Cl)c1F)cc2=O [Example 16, (1S,3S)-7-(3-Chloro-2-fluoro-6-(1H-tetrazol-1-yl)phenyl)-1-methyl-3-(5-(6-oxo-1,6-dihydropyridin-3-yl)-1H-imidazol-2-yl)-2,3-dihydroindolizin-5(1H)-one] | – | – | 0.0781 | 0.447
15 | Nc1ncc(-c2cnc([C@H]3CC4(CC4)c4cc(-c5c(-n6cnnn6)ccc(Cl)c5F)cc(=O)n43)[nH]2)s1 [Example 17, (R)-3′-(5-(2-Aminothiazol-5-yl)-1H-imidazol-2-yl)-7′-(3-chloro-2-fluoro-6-(1H-tetrazol-1-yl)phenyl)-2′,3′-dihydro-5′H-spiro[cyclopropane-1,1′-indolizin]-5′-one] | 9.05 | – | 0.89 | –
16 | Nc1ncc(-c2cnc([C@@H]3CC4(CC4)c4cc(-c5c(-n6cnnn6)ccc(Cl)c5F)cc(=O)n43)[nH]2)s1 [Example 18, (S)-3′-(5-(2-Aminothiazol-5-yl)-1H-imidazol-2-yl)-7′-(3-chloro-2-fluoro-6-(1H-tetrazol-1-yl)phenyl)-2′,3′-dihydro-5′H-spiro[cyclopropane-1,1′-indolizin]-5′-one] | – | – | 0.0091 | 0.105
17 | C[C@H]1C[C@@H](c2ncc(-c3cc(N)ncc3F)[nH]2)n2c1cc(-c1c(-n3cnnn3)ccc(Cl)c1F)cc2=O [Example 19, (1S,3S)-3-(5-(2-Amino-5-fluoropyridin-4-yl)-1H-imidazol-2-yl)-7-(3-chloro-2-fluoro-6-(1H-tetrazol-1-yl)phenyl)-1-methyl-2,3-dihydroindolizin-5(1H)-one] | – | – | 0.0254 | 0.27
18 | C[C@H]1C[C@@H](c2ncc(-c3ccnc(N)n3)[nH]2)n2c1cc(-c1c(-n3cnnn3)ccc(Cl)c1F)cc2=O [Example 20, (1S,3S)-3-(5-(2-Aminopyrimidin-4-yl)-1H-imidazol-2-yl)-7-(3-chloro-2-fluoro-6-(1H-tetrazol-1-yl)phenyl)-1-methyl-2,3-dihydroindolizin-5(1H)-one] | – | – | 0.0197 | 0.295
19 | C[C@H]1C[C@@H](c2ncc(-c3cnc(F)c(N)c3)[nH]2)n2c1cc(-c1c(-n3cnnn3)ccc(Cl)c1F)cc2=O [Example 21, (1S,3S)-3-(5-(5-Amino-6-fluoropyridin-3-yl)-1H-imidazol-2-yl)-7-(3-chloro-2-fluoro-6-(1H-tetrazol-1-yl)phenyl)-1-methyl-2,3-dihydroindolizin-5(1H)-one] | – | – | 0.0644 | 0.34
20 | CC(=O)Nc1ncc(-c2cnc(C3CC4(CC4)c4cc(-c5c(-n6cnnn6)ccc(Cl)c5F)cc(=O)n43)[nH]2)s1 (centres unmarked) [Example 22] | – | – | 0.253 | 0.294
21 | C[C@H]1C[C@@H](c2ncc(-c3cnc(N)s3)[nH]2)n2c1cc(-c1c(-n3cnnn3)ccc(Cl)c1F)cc2=O [Example 23, (1S,3S)-3-(5-(2-Aminothiazol-5-yl)-1H-imidazol-2-yl)-7-(3-chloro-2-fluoro-6-(1H-tetrazol-1-yl)phenyl)-1-methyl-2,3-dihydroindolizin-5(1H)-one] | – | – | 0.005 | 0.24
22 | Nc1ccc(-c2cnc([C@H]3CC4(CC4)c4cc(-c5c(-n6cnnn6)ccc(Cl)c5F)cc(=O)n43)[nH]2)c(F)n1 [Example 24, (R)-3′-(5-(6-Amino-2-fluoropyridin-3-yl)-1H-imidazol-2-yl)-7′-(3-chloro-2-fluoro-6-(1H-tetrazol-1-yl)phenyl)-2′,3′-dihydro-5′H-spiro[cyclopropane-1,1′-indolizin]-5′-one] | > 10 | 1.1 | – | –
